According to US20250134860A1, “NOVEL COMPOUND, AND COMPOSITION FOR PREVENTING, ALLEVIATING OR TREATING BACTERIAL INFLAMMATION AND INFLAMMASOME-MEDIATED DISEASES, COMPRISING SAME AS ACTIVE INGREDIENT” (Quorum Bio Co., Ltd., priority 2022, published 2025):
Values joined by “and” are separate entries in the source; they are usually repeats but may differ in a detail not shown here. Equal values may be shown once.

What was measured:
P. gingivalis = assay: Inhibitory effect on P. gingivalis biofilm formation (crystal violet, OD590nm); type: cell-based, Porphyromonas gingivalis
[1] = tested on: Sprague-Dawley rat bone marrow cells; assay: Rat micronucleus test; conditions: rat, in vivo
Method: Hair was removed from the administration site (subcutaneous) of the SD rats, the administration concentration of the example compounds were set to a low dose (500 mg/kg/day), a medium dose (1000 mg/kg/day), and a high dose (2000 mg/kg/day), and administered subcutaneously to the left and right […] of the test system (10 ml/kg/day each), and the compound was administered subcutaneously in divided doses to the left and right […] of the test system (10 ml/kg/day each).
24 hours after the second administration of the test substance, the femur was removed from each group to collect bone marrow cells. 0.5 mL of 10% neutral formalin was added to the bone marrow cell suspension, fixed for 5 minutes, centrifuged for 5 minutes (4° C., 1,000 rpm, Micro17TR, Hanil Science Industrial, Republic of Korea) to remove the supernatant. Then, 0.3 mL of 10% neutral formalin was added to the precipitated bone marrow cells, suspended, filtered through a cell strain, and transferred to a storage tube. The fixed bone marrow cell suspension was dropped onto a cover glass, and then covered with a slide glass coated with 20 μL of 0.05% acridine orange to prepare an observation slide. The observation slide was observed under a microscope (600× magnification, BX51, Olympus, Japan).
As an indicator of bone marrow cell proliferation inhibition, 500 total red blood cells per individual were observed, and the ratio of polychromatic red blood cells to total red blood cells (PCE/(PCE+NCE)) was calculated. As a positive control, cyclophosphamide (Cas No: 50-18-0) was administered at a dose of 20 mg/kg/day.

[2] = tested on: E. coli (KCTC 2571 (ATCC 8739)); assay: Inhibitory effect on E. coli biofilm formation; type: cell-based, Escherichia coli; conditions: 0.006-4.8 μg/ml; 48 hours; compared with control (CT)
Method: The inhibitory effect of the compound of Example 1-2 on biofilm formation in E. coli (KCTC 2571 (ATCC 8739); available from the Korean Collection for Oral Microbiology (KCOM)) was confirmed.
Sterilized cover glass slips (round, 12 mm radius) were placed individually at a bottom of each well of a cell culture plate (24-well plate) using forceps, and the compound of Example 1-2 was diluted in the medium (LB medium) to be cultured with bacteria so that the final concentrations were 0.006 μg/ml, 0.06 μg/ml, 0.6 μg/ml, 1.2 μg/ml, 2.4 μg/ml, and 4.8 μg/ml.
The prepared culture medium was dispensed into a cell culture plate in which glass slips were placed, and the bacteria were inoculated to a concentration of 2×10^7 cells/ml. […]
The biofilm in which bacteria cultured for each group were formed on glass slips was stained with 1% crystal violet solution for 15 minutes, and then washed three times with PBS (phosphate buffered saline) solution, and decolorized with acetone-alcohol (20:80, vol/vol). After the decolorizing solution containing crystal violet was put in 200 μl increments in a 96-well microplate for each group, the absorbance (OD590nm) was measured using an absorbance microplate reader (Epoch2, Bio-Tek, USA), and the biofilm formation levels were compared.

[3] = General symptoms and body weight in the rat micronucleus study; type: in vivo
Method: In addition, body weight was measured on the day of administration start and bone marrow collection to confirm presence/absence of changes due to administration of the substance, and the results are shown in Table 4 below.

[4] = Plasma stability in human plasma (LC-MS/MS); type: in vitro ADME; conditions: 37° C., 0, 30, 60, 120, 240 minutes
Method: (§1) The compounds of Examples 1-2 and Comparative Example, and the substance used as the positive control (Eucatropine, Loterpresnol) were dissolved in DMSO to prepare a stock solution having a concentration of 10 mM. The stock solution of each test substance was then diluted to prepare 0.2 mM and 1 mM working solutions and used for the test (For the comparative example compound, 70% acetonitrile was used as a solvent, and for the compound of Example 1-2, 50% acetonitrile was used as a solvent).
(§2) The positive control and the standard solution of the test substance were placed in tubes containing two types of plasma (human and rat) at concentrations of 1 μM and 5 μM, respectively, and then incubated at 37° C. for a prescribed time (0, 30, 60, 120, 240 minutes) while shaking and mixing. At each time point, the mixture sample was dispensed in 100 μl increments into a cell culture plate (96-well plate) containing 400 μl of quench reagent to terminate the test, After centrifugation (5000×g, 10 min), 100 μl of the supernatant was taken out, mixed with 200 μl of ultrapure water, and the solution was then injected into a LC-MS/MS system to analyze the drug in each time zone. Thereby, the plasma stability of the compounds of Comparative Example and Example 1-2 was evaluated.

[5] = Plasma stability in rat plasma (LC-MS/MS); type: in vitro ADME; conditions: 37° C., 0, 30, 60, 120, 240 minutes
Method: as §1, §2

Compound: Cc1ccc(C(=C2c3ccccc3C(=O)N2C)c2ccc(C)cc2)cc1 [Example 1-2, 3-(di-p-tolylmethylene)-2-methylisoindolin-1-one]
- biofilm formation of P. gingivalis increased by DPD (P. gingivalis; DPD 10 μM + compound 0.002, 0.02, 0.2, 2 μM, 48 hours, anaerobic, OD590nm): inhibited in a concentration-dependent manner
- ability to inhibit biofilm formation of P. gingivalis at the same concentration (P. gingivalis; Example 1-2 against comparative example compound, 0.002-2 μM with DPD): better ability to inhibit biofilm formation than the comparative example compound
- ratio of polychromatic red blood cells to the total number of red blood cells, relative to negative control ([1]; Sprague-Dawley, 24 h): ≥ 20 % of the negative control
- appearance frequency of micronucleated polychromatic erythrocytes (MNPCE/PCE) compared to the negative control [1]: did not show a statistically significant difference
- biofilm formation of E. coli [2]: significantly suppressed in a concentration-dependent manner
- Body weight (g) before 1st dosing ([3]; 500 mg/kg/day S.C., individual animals 1201-1205): 263.4 g
- Body weight (g) before 1st dosing ([3]; 1,000 mg/kg/day S.C., individual animals 1301-1305): 266.3 g and 251.3 g and 272.4 g
- Body weight (g) before 1st dosing, Mean ([3]; 2,000 mg/kg/day S.C., group mean): 266.9 g
- Body weight (g) before 1st dosing ([3]; 2,000 mg/kg/day S.C., individual animals 1401-1405): 266.2 g
- change in body weight compared to the negative control ([3]; all doses (500, 1000, 2000 mg/kg/day S.C.)): did not show a statistically significant change
- clinical signs in rats ([3]; all doses (500, 1000, 2000 mg/kg/day S.C.), observation period): no abnormal clinical signs
- amount of the compound remaining in the plasma [4]: remained stable
- amount of the compound remaining in the plasma [5]: remained stable
